This is an account of results in patent US12310954B2, “Salivary gland regeneration” (The Regents of the University of California, priority 2018, dated 2025).

The conditions of series [1]: long term oral administration; cited from earlier work.
The conditions of series [2]: long term oral use in patients; cited from earlier work.
In the next series the test system is SOX2^+ cells of the SLG. Briefly: Pilocarpine treatment of mice, SOX2/Ki67 immunostaining of sublingual gland. It is filed as in vivo, mouse. Conditions: wild-type mice, I.P. 4.5 mg/kg, vs saline. How it is done:
Adult male C57BL/6 mice (aged between 6 and 8 weeks) were treated with pilocarpine (Sigma-Aldrich, P0472; 0.68 mg/ml in 0.9% sterile saline). Mice were anesthetized using isoflurane and injected I.P. with pilocarpine at a dose of 4.5 mg/kg bodyweight (200 μl), or 0.9% saline as a vehicle control. Mice were euthanized after 18 h and glands processed for immunofluorescent analysis. Whole-mount salivary gland and tissue section immunofluorescence analysis has been previously described (Knox et al., 2010). In brief, tissue was fixed with either ice-cold acetone/methanol (1:1) for 1 min or 4% PFA for 20-30 min followed by permeabilizing with 0.1-0.3% Triton X. Tissue was blocked overnight at 4° C. with 10% Donkey Serum (Jackson Laboratories, ME), 1% BSA (Sigma-Aldrich), and MOM IgG-blocking reagent (Vector Laboratories, CA) in 0.01% PBS-Tween 20. […] Antibodies were detected using Cy2-, Cy3-, or Cy5-conjugated secondary Fab fragment antibodies (Jackson Laboratories) and nuclei stained using Hoechst 33342 (1:1,000, Sigma-Aldrich). Fluorescence was analyzed using a Leica Sp5 confocal microscope and NIH ImageJ software. For immunofluorescent analyses (e.g., FIG. 2D), cells positively stained for markers were counted using ImageJ. Acinar cell size was measured using ImageJ. […]

For series [3] the following is noted: continuous oral administration, irradiated mice, vs untreated controls; cited from earlier work.

In the case of `CC[C@@H]1C(=O)OC[C@@H]1Cc1cncn1C` [pilocarpine], the tumorigenicity result in series [1] was “not shown to be tumorigenic”. Besides, the salivary gland function entry in series [2] is “improves salivary gland function”. For the same compound, in the series with SOX2^+ cells of the SLG (18 h post-injection), the “percentage of SOX2^+ cells” value is given as “not significantly changed”. Also, the “percentage of proliferating SOX2^+ cells (SOX2^+Ki67^+ cells)” value in the series on SOX2^+ cells of the SLG (sacrificed at 18 h) is reported as “increased”. In series [3], the salivary flow entry was “promoted salivary flow”.
